Data reported in PubChem BioAssay AID256 (DTP/NCI, 2004).
“And” between values parts separate entries of the source, which are not always exact repeats. Equal entries are not always repeated. Inconclusive results and toxic doses are left out. Rule for the calls: active = survival T/C of 150% or more; inactive = T/C below 125% in these data.

Test system: CD2F1 mice, L1210 leukemia ip, survival T/C
Assay: NCI In Vivo Anticancer Drug Screen. Data for tumor model L1210 Leukemia (intraperitoneal) in CD2F1 (CDF1) mice
Settings: higher = longer survival
Summary of the method: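 In this screen, transplantable tumors were grown in mice given either the compound or its vehicle. Results were expressed as the treated measurement relative to the control measurement.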

[1] = endpoint: mean survival time, dose: 100.0 mg/kg/injection, schedule: Q01DX001 (ip), vehicle: saline with Tween-80
[2] = endpoint: mean survival time, dose: 100.0 mg/kg/injection, schedule: Q04DX003 (ip), vehicle: saline with Tween-80
[3] = endpoint: mean survival time, dose: 200.0 mg/kg/injection, schedule: Q04DX003 (ip), vehicle: saline with Tween-80
[4] = endpoint: mean survival time, dose: 400.0 mg/kg/injection, schedule: Q04DX003 (ip), vehicle: saline with Tween-80
[5] = endpoint: mean survival time, dose: 200.0 mg/kg/injection, schedule: Q01DX001 (ip), vehicle: saline with Tween-80
[6] = endpoint: mean survival time, dose: 400.0 mg/kg/injection, schedule: Q01DX001 (ip), vehicle: saline with Tween-80
[7] = endpoint: mean survival time, dose: 100.0 mg/kg/injection, schedule: Q01DX009 (ip), vehicle: saline with Tween-80
[8] = endpoint: mean survival time, dose: 400.0 mg/kg/injection, schedule: Q01DX009 (ip), vehicle: saline with Tween-80
[9] = endpoint: mean survival time, dose: 200.0 mg/kg/injection, schedule: Q01DX009 (ip), vehicle: saline with Tween-80

Measured: T/C

O.O=[Se](=O)(O)O.[NH-]C1CCCCC1[NH-].[Pt+2] (stereo unspecified)
inactive: endpoint: mean survival time, dose: 2.0 mg/kg/injection, schedule: Q01DX009 (ip), vehicle: dextrose 88 % of control | endpoint: mean survival time, dose: 3.0 mg/kg/injection, schedule: Q01DX009 (ip), vehicle: dextrose 109 % of control | endpoint: mean survival time, dose: 8.0 mg/kg/injection, schedule: Q04DX003 (ip), vehicle: dextrose 87 % of control

CN(C)/C=C1\Cc2ccccc2C1=O
inactive: endpoint: mean survival time, dose: 25.0 mg/kg/injection, schedule: Q01DX001 (ip), vehicle: saline with Tween-80 95 % of control | endpoint: mean survival time, dose: 50.0 mg/kg/injection, schedule: Q01DX001 (ip), vehicle: saline with Tween-80 92 % of control | [1] 90 % of control

CC(=O)OCCOCCOCc1ccccc1
inactive: endpoint: mean survival time, dose: 100.0 mg/kg/injection, schedule: Q01DX001 (ip), vehicle: other 96 % of control | endpoint: mean survival time, dose: 200.0 mg/kg/injection, schedule: Q01DX001 (ip), vehicle: other 102 % of control | endpoint: mean survival time, dose: 400.0 mg/kg/injection, schedule: Q01DX001 (ip), vehicle: other 98 % of control

O=C1c2ccccc2S(=O)(=O)c2cccc(S(=O)(=O)c3ccccc3)c21
inactive: [2] 98 % of control | [3] 95 % of control | [4] 90 % of control

CC(=O)C1CCC2C3CC=C4CC(n5cc(F)c(=O)[nH]c5=O)CCC4(C)C3CCC12C (stereo unspecified)
inactive: endpoint: mean survival time, dose: 12.5 mg/kg/injection, schedule: Q04DX003 (ip), vehicle: Klucel (hydroxypropylcellulose) (HPC) 97 % of control | endpoint: mean survival time, dose: 25.0 mg/kg/injection, schedule: Q04DX003 (ip), vehicle: Klucel (hydroxypropylcellulose) (HPC) 101 % of control | endpoint: mean survival time, dose: 50.0 mg/kg/injection, schedule: Q04DX003 (ip), vehicle: Klucel (hydroxypropylcellulose) (HPC) 97 % of control | endpoint: mean survival time, dose: 100.0 mg/kg/injection, schedule: Q04DX003 (ip), vehicle: Klucel (hydroxypropylcellulose) (HPC) 98 % of control | endpoint: mean survival time, dose: 200.0 mg/kg/injection, schedule: Q04DX003 (ip), vehicle: Klucel (hydroxypropylcellulose) (HPC) 91 % of control

CNC(=O)Nc1nc2ccc([N+](=O)[O-])cc2[nH]1
inactive: [2] 109 % of control | [3] 105 % of control | [4] 105 % of control

CN(c1ccccc1)c1ccc(N=Nc2nc3ccccc3s2)cc1
inactive: [1] 95 % of control | [5] 98 % of control | [6] 87 % of control

C=CC[n+]1ccccc1/C=C\c1ccc(N(C)C)cc1
inactive: endpoint: mean survival time, dose: 75.0 mg/kg/injection, schedule: Q01DX001 (ip), vehicle: saline 118 % of control

Cn1c(CC(O)(C(F)(F)F)C(F)(F)F)cc(=O)n1-c1ccccc1
inactive: [2] 95 % of control | [3] 94 % of control

CN(C)CC1CCCCC1OC(=O)c1ccccc1 (stereo unspecified)
inactive: endpoint: mean survival time, dose: 25.0 mg/kg/injection, schedule: Q04DX003 (ip), vehicle: saline with Tween-80 93 % of control | endpoint: mean survival time, dose: 50.0 mg/kg/injection, schedule: Q04DX003 (ip), vehicle: saline with Tween-80 97 % of control | [2] 97 % of control | endpoint: mean survival time, dose: 100.0 mg/kg/injection, schedule: Q04DX003 (ip), vehicle: water 96 % of control

CCCCCCCCCCCC[n+]1cccc2ccccc21
inactive: endpoint: mean survival time, dose: 0.35 mg/kg/injection, schedule: Q01DX009 (ip), vehicle: saline 106 % of control | endpoint: mean survival time, dose: 0.7 mg/kg/injection, schedule: Q01DX009 (ip), vehicle: saline 111 % of control | endpoint: mean survival time, dose: 1.4 mg/kg/injection, schedule: Q01DX009 (ip), vehicle: saline 117 % of control

[CH3][Sb]([CH3])([CH3])([O]C(=O)CCl)[O]C(=O)CCl
inactive: endpoint: mean survival time, dose: 100.0 mg/kg/injection, schedule: Q04DX002 (ip), vehicle: saline with Tween-80 107 % of control | endpoint: mean survival time, dose: 200.0 mg/kg/injection, schedule: Q04DX002 (ip), vehicle: saline with Tween-80 107 % of control | endpoint: mean survival time, dose: 400.0 mg/kg/injection, schedule: Q04DX002 (ip), vehicle: saline with Tween-80 103 % of control

CNC(=S)NNc1ccccc1Cl
inactive: endpoint: mean survival time, dose: 12.5 mg/kg/injection, schedule: Q01DX009 (ip), vehicle: other 98 % of control | endpoint: mean survival time, dose: 25.0 mg/kg/injection, schedule: Q01DX009 (ip), vehicle: other 94 % of control | endpoint: mean survival time, dose: 50.0 mg/kg/injection, schedule: Q01DX009 (ip), vehicle: other 88 % of control | endpoint: mean survival time, dose: 100.0 mg/kg/injection, schedule: Q01DX009 (ip), vehicle: other 104 % of control | endpoint: mean survival time, dose: 200.0 mg/kg/injection, schedule: Q01DX009 (ip), vehicle: other 104 % of control

C(=Nc1ccc(-c2ccccc2)cc1)c1ccccc1
inactive: [7] 87 % of control | [8] 91 % of control

Cn1c(=O)c2c(ncn2-c2ccncc2)n(C)c1=O
inactive: endpoint: mean survival time, dose: 12.5 mg/kg/injection, schedule: Q01DX005 (ip), vehicle: saline with Tween-80 93 % of control | endpoint: mean survival time, dose: 25.0 mg/kg/injection, schedule: Q01DX005 (ip), vehicle: saline with Tween-80 98 % of control | endpoint: mean survival time, dose: 50.0 mg/kg/injection, schedule: Q01DX005 (ip), vehicle: saline with Tween-80 96 % of control | endpoint: mean survival time, dose: 100.0 mg/kg/injection, schedule: Q01DX005 (ip), vehicle: saline with Tween-80 104 % of control

c1csc(C[N+]23CN4CN(CN(C4)C2)C3)c1
inactive: endpoint: median survival time, dose: 12.5 mg/kg/injection, schedule: Q01DX009 (ip), vehicle: saline 103 % of control | endpoint: median survival time, dose: 25.0 mg/kg/injection, schedule: Q01DX009 (ip), vehicle: saline 107 % of control | endpoint: median survival time, dose: 50.0 mg/kg/injection, schedule: Q01DX009 (ip), vehicle: saline 107 % of control | endpoint: median survival time, dose: 100.0 mg/kg/injection, schedule: Q01DX009 (ip), vehicle: saline 108 % of control | endpoint: median survival time, dose: 200.0 mg/kg/injection, schedule: Q01DX009 (ip), vehicle: saline 101 % of control | endpoint: median survival time, dose: 400.0 mg/kg/injection, schedule: Q01DX009 (ip), vehicle: saline 109 % of control

CCC[CH2][Sn]1([CH2]CCC)[O]C2C(CO)OC(n3cnc4c(N)ncnc43)C2[O]1 (stereo unspecified)
inactive: endpoint: mean survival time, dose: 0.2 mg/kg/injection, schedule: Q01DX005 (ip), vehicle: other 107 % of control | endpoint: mean survival time, dose: 0.39 mg/kg/injection, schedule: Q01DX005 (ip), vehicle: other 104 % of control | endpoint: mean survival time, dose: 0.78 mg/kg/injection, schedule: Q01DX005 (ip), vehicle: other 104 % of control | endpoint: mean survival time, dose: 1.56 mg/kg/injection, schedule: Q01DX005 (ip), vehicle: other 102 % of control and 107 % of control | endpoint: mean survival time, dose: 3.13 mg/kg/injection, schedule: Q01DX005 (ip), vehicle: other 103 % of control and 110 % of control

NOCc1cc(Cl)sc1Cl
inactive: [2] 112 % of control | [3] 121 % of control

CC(=S)NC(O)C(=O)c1ccccc1 (stereo unspecified)
inactive: endpoint: mean survival time, dose: 12.5 mg/kg/injection, schedule: Q01DX009 (ip), vehicle: saline with Tween-80 101 % of control | endpoint: mean survival time, dose: 25.0 mg/kg/injection, schedule: Q01DX009 (ip), vehicle: saline with Tween-80 98 % of control | endpoint: mean survival time, dose: 50.0 mg/kg/injection, schedule: Q01DX009 (ip), vehicle: saline with Tween-80 98 % of control | [7] 104 % of control | [9] 93 % of control | [8] 115 % of control

O.O=P(O)(O)O.[NH-]C1CCCCC1[NH-].[Pt+2] (stereo unspecified)
inactive: endpoint: mean survival time, dose: 50.0 mg/kg/injection, schedule: Q04DX003 (ip), vehicle: water 120 % of control

c1ccc(CNc2nnnc3ccccc23)cc1
inactive: [1] 100 % of control | [5] 88 % of control | [6] 94 % of control

CCC(=O)Nc1cccc(OS(=O)(=O)N(C)C)c1
inactive: [3] 97 % of control | [4] 94 % of control

c1cc2c(cc1CC1CCNC1)OCO2 (stereo unspecified)
inactive: endpoint: mean survival time, dose: 5.0 mg/kg/injection, schedule: Q01DX001 (ip), vehicle: saline 103 % of control | endpoint: mean survival time, dose: 5.0 mg/kg/injection, schedule: Q01DX009 (ip), vehicle: saline sonified 100 % of control | endpoint: mean survival time, dose: 5.0 mg/kg/injection, schedule: Q04DX003 (ip), vehicle: saline 101 % of control | endpoint: mean survival time, dose: 10.0 mg/kg/injection, schedule: Q01DX001 (ip), vehicle: saline 103 % of control | endpoint: mean survival time, dose: 10.0 mg/kg/injection, schedule: Q01DX009 (ip), vehicle: saline sonified 91 % of control | endpoint: mean survival time, dose: 10.0 mg/kg/injection, schedule: Q04DX003 (ip), vehicle: saline 102 % of control | endpoint: mean survival time, dose: 20.0 mg/kg/injection, schedule: Q01DX001 (ip), vehicle: saline 98 % of control | endpoint: mean survival time, dose: 20.0 mg/kg/injection, schedule: Q01DX009 (ip), vehicle: saline sonified 100 % of control | endpoint: mean survival time, dose: 20.0 mg/kg/injection, schedule: Q04DX003 (ip), vehicle: saline 101 % of control

CCC(N)Cc1ccc2c(c1)OCO2 (stereo unspecified)
inactive: endpoint: mean survival time, dose: 25.0 mg/kg/injection, schedule: Q01DX009 (ip), vehicle: saline 98 % of control | endpoint: mean survival time, dose: 50.0 mg/kg/injection, schedule: Q01DX009 (ip), vehicle: saline 93 % of control | endpoint: mean survival time, dose: 100.0 mg/kg/injection, schedule: Q01DX009 (ip), vehicle: saline 96 % of control | [2] 95 % of control

C=CCNC(=O)/C(=C\c1ccccc1)NC(C)=O
inactive: [7] 96 % of control | [2] 98 % of control | [9] 98 % of control | [3] 100 % of control | [8] 95 % of control | [4] 100 % of control
